Source: patent US20250009737A1, “COMPOUNDS AND METHODS FOR THE TARGETED DEGRADATION OF ANDROGEN RECEPTOR” (Arvinas Operations, Inc., priority 2023, published 2025)
Like-named read-outs stand apart in the source and are kept apart here.

Columns and labels:
Assay type in all cases: in vitro ADME
OATP1B1 = molecular target: T1, OATP1B1 (Homo sapiens, UniProt Q9Y6L6); assay: OATP1B1 uptake transporter substrate assay; design: expressed in transfected cells; details: OATP1B1-expressing vs control cell
T1 sequence (Q9Y6L6 1-691): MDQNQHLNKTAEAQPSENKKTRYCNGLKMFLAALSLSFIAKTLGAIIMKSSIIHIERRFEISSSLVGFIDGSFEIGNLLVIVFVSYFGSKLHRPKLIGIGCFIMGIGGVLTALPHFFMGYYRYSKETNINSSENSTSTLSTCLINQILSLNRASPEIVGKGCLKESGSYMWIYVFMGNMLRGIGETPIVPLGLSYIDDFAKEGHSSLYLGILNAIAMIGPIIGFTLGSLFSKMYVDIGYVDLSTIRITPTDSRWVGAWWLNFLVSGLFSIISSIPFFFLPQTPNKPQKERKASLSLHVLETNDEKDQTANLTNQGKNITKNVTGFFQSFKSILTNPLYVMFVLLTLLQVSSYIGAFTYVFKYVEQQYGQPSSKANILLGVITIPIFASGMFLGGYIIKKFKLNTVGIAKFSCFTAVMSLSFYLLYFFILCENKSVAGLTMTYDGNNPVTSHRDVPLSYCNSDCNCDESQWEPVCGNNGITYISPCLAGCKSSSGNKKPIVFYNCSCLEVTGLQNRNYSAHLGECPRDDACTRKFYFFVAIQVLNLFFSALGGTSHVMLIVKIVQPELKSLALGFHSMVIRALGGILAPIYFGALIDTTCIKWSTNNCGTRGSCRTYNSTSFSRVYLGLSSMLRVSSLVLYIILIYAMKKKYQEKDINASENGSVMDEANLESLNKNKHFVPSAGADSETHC
Method: (§1) The potential of Compound A to act as an efflux transporter Pgp and BCRP as well as uptake transporter OATP1B1 and 1B3 were assessed in Caco-2 and single transporter over-expressed HEK29 cells, respectively.
(§2) The potential of Compound A to act as a substrate for Pgp and BCRP was examined in Caco-2 cells at the concentrations of 0.075, 0.75, 3.75 and 7.5 μM containing 1% of BSA. After 120 min incubation, the bidirectional permeability of Compound A was determined by LC-MS/MS. The involvement of Compound A as a substrate of OATP1B1 and OATP1B3 was assessed in the uptake transporter substrate assays at 4 concentrations (0.1, 0.5, 1 and 5 μM). Compound A in cell lysates was determined by LC-MS/MS.

[1] = Metabolite profiling / stability in human liver microsomes
Method: (§3) Metabolite profiling was conducted in incubations of Compound A (2 and 10 μM) with HLM (up to 60 min), human hepatocyte suspension (up to 240 min) and human plasma (up to 360 min). In addition, Compound A (2 μM) was incubated with recombinant human CYP enzymes CYP1A2, CYP2A6, CYP2B6, CYP2C8, CYP2C9, CYP2C19, CYP2D6, CYP2E1, CYP3A4 and CYP3A5.
The DDI potential of Compound A as a victim via CYP mediated pathways was examined in HLM, human hepatocyte suspensions, and human recombinant CYP enzymes.

OATP1B3 = molecular target: T2, OATP1B3 (Homo sapiens, UniProt Q9NPD5); assay: OATP1B3 uptake transporter substrate assay; design: expressed in transfected cells; details: OATP1B3-expressing vs control cell
T2 sequence (Q9NPD5 1-702): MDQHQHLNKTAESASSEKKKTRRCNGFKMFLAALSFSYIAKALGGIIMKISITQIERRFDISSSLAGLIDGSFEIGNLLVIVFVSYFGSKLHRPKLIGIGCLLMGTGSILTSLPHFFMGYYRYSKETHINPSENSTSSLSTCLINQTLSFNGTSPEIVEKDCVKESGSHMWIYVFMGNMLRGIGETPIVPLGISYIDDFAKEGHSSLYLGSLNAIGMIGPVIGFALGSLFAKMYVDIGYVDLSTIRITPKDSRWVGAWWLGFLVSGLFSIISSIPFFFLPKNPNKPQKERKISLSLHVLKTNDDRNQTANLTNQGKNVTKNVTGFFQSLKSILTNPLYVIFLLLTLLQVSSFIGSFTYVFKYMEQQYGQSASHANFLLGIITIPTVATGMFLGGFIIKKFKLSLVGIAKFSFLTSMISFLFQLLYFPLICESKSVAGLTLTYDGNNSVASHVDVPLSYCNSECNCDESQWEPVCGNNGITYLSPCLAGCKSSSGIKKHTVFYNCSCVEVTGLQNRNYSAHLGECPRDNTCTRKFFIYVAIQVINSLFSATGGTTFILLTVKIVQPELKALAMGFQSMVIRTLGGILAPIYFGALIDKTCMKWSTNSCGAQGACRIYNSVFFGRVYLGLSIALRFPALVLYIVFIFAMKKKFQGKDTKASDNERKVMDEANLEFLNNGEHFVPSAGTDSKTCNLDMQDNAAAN
Method: as §1, §2

CYP2C19 = molecular target: T3, CYP2C19 (Homo sapiens, UniProt P33261); assay: Direct and time-dependent CYP2C19 inhibition in pooled human liver microsomes; details: pooled HLM, substrate S-Mephenytoin 20 μM
T3 construct: evaluated in pooled human liver microsomes (HLM); from tissue; host or cells: pooled human liver microsomes
Method: The induction potential of Compound A on CYP enzymes was assessed in cryopreserved human hepatocytes from three donors. Following treatment for with Compound A at concentrations of 0.03-30 μM for 48 hours, mRNA levels for CYP1A2, 2B6, 2C8, 2C9, 2C19, and 3A4 were determined by semiquantitative real-time polymerase chain reaction (PCR). Test article concentrations during 24-hour incubation were determined. The potential of Compound A to cause direct and time-dependent inhibition (TDI) of the activities of CYP1A2, 2B6, 2C8, 2C9, 2C19, 2D6, and 3A4 was evaluated in pooled human liver microsomes (HLM) at 0.2-15 μM. Probe substrate concentrations around Km were used for direction inhibition and initial TDI assays. For TDI assay, Compound A was pre-incubated with pooled HLM with and without NADPH for 30 minutes prior to incubation with a single concentration of probe substrate.

[2] = Metabolite profiling using human plasma, HLM and human hepatocytes; details: human plasma
Method: as §3

T3 sequence (P33261 whole entry): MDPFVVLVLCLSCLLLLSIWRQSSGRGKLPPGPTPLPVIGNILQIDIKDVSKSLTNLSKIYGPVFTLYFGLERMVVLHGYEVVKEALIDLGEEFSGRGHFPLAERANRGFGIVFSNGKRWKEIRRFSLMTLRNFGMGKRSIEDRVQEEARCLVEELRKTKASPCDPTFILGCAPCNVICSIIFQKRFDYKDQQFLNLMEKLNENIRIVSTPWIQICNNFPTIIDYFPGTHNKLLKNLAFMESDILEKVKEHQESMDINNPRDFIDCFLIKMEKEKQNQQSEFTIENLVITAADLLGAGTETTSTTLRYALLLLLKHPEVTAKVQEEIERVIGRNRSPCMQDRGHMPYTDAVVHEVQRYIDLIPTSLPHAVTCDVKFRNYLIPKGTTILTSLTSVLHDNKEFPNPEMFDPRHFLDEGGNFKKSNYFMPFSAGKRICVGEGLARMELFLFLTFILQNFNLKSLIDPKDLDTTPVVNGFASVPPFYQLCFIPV

COc1cc(O[C@H]2C(C)(C)[C@H](NC(=O)c3ccc(N4CCC(CN5CCN(c6ccc(C(=O)N[C@H]7CCC(=O)NC7=O)c(F)c6)CC5)CC4)cc3)C2(C)C)ccc1C#N [Compound A, 4-(4-((1-(4-(((1R,3R)-3-(4-cyano-3-methoxyphenoxy)-2,2,4,4-tetramethylcyclobutyl)carbamoyl)phenyl)piperidin-4-yl)methyl)piperazin-1-yl)-N—((S)-2,6-dioxopiperidin-3-yl)-2-fluorobenzamide]
Fold accumulation, OATP1B1 (OATP1B1): < 2 fold | Substrate for OATP1B1 (OATP1B1; 0.1, 0.5, 1 and 5 μM): not a substrate | % Parent at 0 Min, HLM at 60 min ([1]; human liver microsomes, 60 min): 92.6% | Stability in HLM incubations ([1]; up to 60 min at 2 μM): relatively stable | Fold accumulation, OATP1B3 (OATP1B3): < 2 fold | Substrate for OATP1B3 (OATP1B3; 0.1, 0.5, 1 and 5 μM): not a substrate | IC50 (CYP2C19; read-out: IC50, 30 min Pre-incubation): > 15 µM | IC50 (CYP2C19; read-out: IC50, No Pre-incubation): > 15 µM | Major metabolic pathway [2]: hydrolysis (M825/1)
